Experimental data as given in the NIST ThermoML archive (doi:10.1016/j.jct.2018.10.015).

Test: xn = mol fraction of the nth substance listed
Conditions: 101.3 kPa, Liquid; for viscosity: Concentric cylinders viscometry; for mass density: Vibrating tube method

CCCCn1cc[n+](C)c1C.O=S(=O)([N-]S(=O)(=O)C(F)(F)F)C(F)(F)F + COC(=O)OC
Conditions	mass density, 313.15 K [kg/m3]	mass density, 318.15 K [kg/m3]	mass density, 323.15 K [kg/m3]	mass density, 328.15 K [kg/m3]	viscosity, 313.15 K [mPa·s]	viscosity, 318.15 K [mPa·s]	viscosity, 323.15 K [mPa·s]	viscosity, 328.15 K [mPa·s]
x1 = 0.0976	1152.2	1146.2	1140.2	1133.9	1.343	1.25	1.165	1.091
x1 = 0.1935	1220.1	1214.5	1209	1203.6	2.405	2.214	2.046	1.904
x1 = 0.299	1270.7	1265.5	1260.3	1255.1	4.306	3.9	3.553	3.258
x1 = 0.4011	1305.6	1300.6	1295.6	1290.5	6.95	6.184	5.543	5.017
x1 = 0.4954	1330.4	1325.5	1320.6	1315.6	10.34	9.06	8	7.129
x1 = 0.5974	1351.7	1346.9	1342.1	1337.2	15.2	13.1	11.4	10.03
x1 = 0.6988	1368.8	1364	1359.3	1354.6	21.55	18.3	15.71	13.64
x1 = 0.7987	1382.7	1378.1	1373.4	1368.7	29.34	24.58	20.85	17.91
x1 = 0.9	1394.6	1390	1385.4	1380.8	39.06	32.32	27.09	23.04
x1 = 1	1404.8	1400.2	1395.6	1391	50.56	41.38	34.32	28.91
